# Tests used:
# [1] = test system: S. aureus Smith; conditions: Staphylococcus aureus, 18 h, pH 7.2
# [2] = test system: P. aeruginosa A20599; format: cell-based; conditions: Pseudomonas aeruginosa, pH 7.2, 32° C. 18 hr, 10^6 cells/ml
# [3] = test system: S. epidermidis 11-1230; conditions: Staphylococcus epidermidis, 111230, 18 h, pH 7.2
# [4] = test system: M. morgani 1510/9; conditions: 18 h, pH 7.2
# [5] = test system: P. aeruginosa IPM-8; conditions: Pseudomonas aeruginosa, IPM8, 18 h, pH 7.2
# [6] = test system: X. maltophilia No. 661; conditions: Stenotrophomonas maltophilia, NO.661, 18 h, pH 7.2
# [7] = test system: E. cloacae IPM-12; conditions: Enterobacter cloacae, IPM12, 18 h, pH 7.2
# [8] = test system: S. epidermidis 11-1168; format: cell-based; conditions: Staphylococcus epidermidis, 111168, pH 7.2, 32° C. 18 hr, 10^6 cells/ml
# [9] = test system: P. cepacia A21213; format: cell-based; conditions: Burkholderia cepacia, pH 7.2, 32° C. 18 hr, 10^6 cells/ml
# [10] = test system: C. freundii GN 7391; conditions: Citrobacter freundii, GN7391, 18 h, pH 7.2
# [11] = test system: P. aeruginosa KKA 19; conditions: Pseudomonas aeruginosa, KKA19, 18 h, pH 7.2
# [12] = test system: P. rettgeri IPM-14; conditions: Providencia rettgeri, IPM14, 18 h, pH 7.2
# [13] = test system: E. faecium A24817; format: cell-based; conditions: Enterococcus faecium, pH 7.2, 32° C. 18 hr, 10^6 cells/ml
# [14] = test system: M. morgani 1510; conditions: 18 h, pH 7.2
# [15] = test system: P. aeruginosa IPM-9; conditions: Pseudomonas aeruginosa, IPM9, 18 h, pH 7.2
# [16] = test system: M. luteus 1001; conditions: Micrococcus luteus, 1001, 18 h, pH 7.2
# [17] = test system: S. marcescens IPM-16; conditions: Serratia marcescens, IPM16, 18 h, pH 7.2
# [18] = test system: E. coli 255; conditions: Escherichia coli, 255, 18 h, pH 7.2
# [19] = test system: P. vulgaris IPM-13; format: cell-based; conditions: Proteus vulgaris, IPM13, pH 7.2, 32° C. 18 hr, 10^6 cells/ml
# [20] = test system: P. cepacia No. 651; conditions: Burkholderia cepacia, NO.651, 18 h, pH 7.2
# [21] = test system: S. aureus 209P; conditions: Staphylococcus aureus, 18 h, pH 7.2
# [22] = test system: S. marcescens IPM-15; conditions: Serratia marcescens, IPM15, 18 h, pH 7.2
# [23] = test system: C. terrigena IFO 12685; conditions: 18 h, pH 7.2
# [24] = test system: S. aureus 4-1015 (MRSA); conditions: Staphylococcus aureus, 18 h, pH 7.2
# [25] = test system: X. maltophilia GN 12873; conditions: Stenotrophomonas maltophilia, GN12873, 18 h, pH 7.2
# [26] = test system: K. pneumoniae PCI 602; conditions: Klebsiella pneumoniae, PCI602, 18 h, pH 7.2
# [27] = test system: P. mirabilis IFO-2849; conditions: Proteus mirabilis, IFO2849, 18 h, pH 7.2
# [28] = test system: S. aureus IPM-24 (MRSA); conditions: Staphylococcus aureus, 18 h, pH 7.2
# [29] = test system: E. coli Juhl A15119; conditions: Escherichia coli, JUHLA15119, 18 h, pH 7.2
# [30] = test system: E. faecalis A9808; conditions: Enterococcus faecalis, A9808, 18 h, pH 7.2
# [31] = test system: B. subtilis PCI 219; conditions: Bacillus subtilis, PCI219, 18 h, pH 7.2
# [32] = test system: B. fragilis A 22533; experiment: In vitro activity against anaerobes (MIC), two-fold serial agar dilution, GAM agar; format: cell-based; conditions: Bacteroides fragilis, A22533, Gn, Beta-Lactamase(+)
# [33] = test system: B. fragilis A 22053; experiment: as above; format: cell-based; conditions: Bacteroides fragilis, A22053, Gn, Beta-Lactamase(-)
# [34] = test system: PCresistant S. aureus; experiment: MIC, two-fold serial agar dilution, Mueller-Hinton agar (geometric mean, group Gp-Ib); format: cell-based; conditions: Staphylococcus aureus, penicillin-resistant S. aureus, 5 strains
# Protocol: (§1) For a primary evaluation of some representative compounds of this invention, minimum inhibitory concentrations (MIC's) were determined against 32 strains of test organisms by two-fold serial agar dilution method in Mueller-Hinton agar.
# GpIb: PCresistant S. aureus
# [35] = test system: B. fragilis A 22534; experiment: In vitro activity against anaerobes (MIC), two-fold serial agar dilution, GAM agar; format: cell-based; conditions: Bacteroides fragilis, A22534, Gn, Beta-Lactamase(+)
# [36] = test system: B. fragilis A 22695; experiment: as above; format: cell-based; conditions: Bacteroides fragilis, A22695, Gn, Beta-Lactamase(+)
# [37] = test system: C. perfringens A9635; experiment: microbe, parasite or virus in culture; format: cell-based; conditions: Clostridium perfringens
# [38] = test system: Ps. aeruginosa (7); experiment: MIC, two-fold serial agar dilution, Mueller-Hinton agar (geometric mean, group Gn-III); format: cell-based; conditions: Pseudomonas aeruginosa, 7 strains
# Protocol: as §1
# GnIII: Ps. aeruginosa (7)
# [39] = test system: C. difficile A 21675; experiment: In vitro activity against anaerobes (MIC); format: cell-based; conditions: Clostridioides difficile, A21675, Gp, Clindamycin-resistant
# [40] = test system: B. fragilis CUH-108; experiment: In vitro activity against anaerobes (MIC), two-fold serial agar dilution, GAM agar; format: cell-based; conditions: Bacteroides fragilis, CUH108, Gn, Beta-Lactamase(+), Clindamycin-resistant
# Protocol: In vitro activity against anaerobic bacteria was determined on eight strains of B. fragilis by two-fold serial agar dilution method in GAM agar.
# [41] = test system: B. fragilis A 22021; experiment: as above; format: cell-based; conditions: Bacteroides fragilis, A22021, Gn, Beta-Lactamase(-)
# [42] = test system: Cephalothin (CET)sensitive E. coli(2), Kl. pneumoniae(1) and Pr. mirabilis(2); experiment: MIC, two-fold serial agar dilution, Mueller-Hinton agar (geometric mean, group Gn-Ia); format: cell-based; conditions: 5 strains
# Protocol: as §1
# GnIa: Cephalothin (CET)sensitive E. coli(2)*, Kl. pneumoniae(1) and Pr.
# [43] = test system: B. fragilis A 22693; experiment: In vitro activity against anaerobes (MIC), two-fold serial agar dilution, GAM agar; format: cell-based; conditions: Bacteroides fragilis, A22693, Gn, Beta-Lactamase(-)
# [44] = test system: B. fragilis A 21916; experiment: as above; format: cell-based; conditions: Bacteroides fragilis, A21916, Gn, Beta-Lactamase(-)
# [45] = test system: M. morganii(1), Ent. cloacae(2), and Ser. marcescens(2); experiment: MIC, two-fold serial agar dilution, Mueller-Hinton agar (geometric mean, group Gn-II); format: cell-based; conditions: 5 strains
# Protocol: as §1
# GnII: M. morganii(1), Ent. cloacae(2), and Ser. marcescens(2)
# [46] = test system: P. acnes A 21933; experiment: In vitro activity against anaerobes (MIC); format: cell-based; conditions: Cutibacterium acnes, A21933, Gp
# [47] = test system: Penicillin (PC)sensitive S. (5 strains); experiment: MIC, two-fold serial agar dilution, Mueller-Hinton agar (geometric mean, group Gp-Ia); format: cell-based, S. aureus; conditions: Staphylococcus aureus
# Protocol: as §1
# Gp-Ia: Penicillin (PC)sensitive S.
# [48] = test system: CETresistant E. coli(3), and Kl. pneumoniae(2); experiment: MIC, two-fold serial agar dilution, Mueller-Hinton agar (geometric mean, group Gn-Ib); format: cell-based; conditions: Escherichia coli, read-out: Geometric Mean of MIC, Gn-Ib
# Protocol: as §1
# GnIb: CETresistant E. coli(3), and Kl. pneumoniae(2)
smiles,measurement,setting,value
"Nc1nc(/C(=N/O)C(=O)NC2C(=O)N3C(C(=O)O)=C(/C=C/COC(=O)c4ccc(O)c(O)c4)CSC23)cs1 (stereo not drawn) [Id, 7-[(Z)-2-(2-Aminothiazol-4-yl)-2-hydroxyiminoacetamido]-3-[(E)-3l-(3,4-dihydroxybenzoyloxy)-1-propen-1-yl]-3-cephem-4-carboxylic acid]",MIC,[1],0.8 µg/mL
same,MIC,[2],> 100 µg/mL
same,MIC,[3],6.3 µg/mL
same,MIC,[4],0.2 µg/mL
same,MIC,[5],> 100 µg/mL
same,MIC,[6],> 100 µg/mL
same,MIC,[7],> 100 µg/mL
same,MIC,[8],3.1 µg/mL
same,MIC,[9],> 100 µg/mL
same,MIC,[10],50 µg/mL
same,MIC,[11],> 100 µg/mL
same,MIC,[12],0.4 µg/mL
same,MIC,[13],100 µg/mL
same,MIC,[14],6.3 µg/mL
same,MIC,[15],> 100 µg/mL
same,MIC,[16],0.2 µg/mL
same,MIC,[17],> 100 µg/mL
same,MIC,[18],0.8 µg/mL
same,MIC,[19],> 100 µg/mL
same,MIC,[20],> 100 µg/mL
same,MIC,[21],0.8 µg/mL
same,MIC,[22],> 100 µg/mL
same,MIC,[23],0.8 µg/mL
same,MIC,[24],6.3 µg/mL
same,MIC,[25],> 100 µg/mL
same,MIC,[26],0.025 µg/mL
same,MIC,[27],0.2 µg/mL
same,MIC,[28],100 µg/mL
same,MIC,[29],0.2 µg/mL
same,MIC,[30],12.5 µg/mL
same,MIC,[31],0.4 µg/mL
"CO/N=C(\C(=O)NC1C(=O)N2C(C(=O)O)=C(/C=C/COC(=O)Nc3ccc(O)c(O)c3)CSC12)c1csc(N)n1 (stereo not drawn) [Ie, 7-[(Z)-2-(2-Aminothiazol-4-yl)-2-methoxyiminoacetamido]-3-[(E)-3-(N-3,4-dihyroxyphenyl)carbamoyloxy-1-propen-1-yl]-3-cephem-4-carboxylic acid]",MIC,[32],> 100 µg/mL
same,MIC,[33],3.1 µg/mL
same,MIC,[34],7.2 µg/mL
same,MIC,[35],> 100 µg/mL
same,MIC,[36],25 µg/mL
same,MIC,[37],1.6 µg/mL
same,MIC,[38],50 µg/mL
same,MIC,[39],50 µg/mL
same,MIC,[40],100 µg/mL
same,MIC,[41],0.4 µg/mL
same,MIC,[42],0.23 µg/mL
same,MIC,[43],3.1 µg/mL
same,MIC,[44],6.3 µg/mL
same,MIC,[45],3.6 µg/mL
same,MIC,[46],1.6 µg/mL
same,MIC,[47],6.3 µg/mL
same,MIC,[48],0.46 µg/mL

# — patent US5143911A, “Antibiotic C-3 di-hydroxyphenyl substituted cephalosporin compounds, compositions and method of use thereof” (Bristol-Myers Squibb Company, priority 1990, dated 1992)
